# Laboratory results reported in article PMC4501059, “Responding to the challenge of untreatable gonorrhea: ETX0914, a first-in-class agent with a distinct mechanism-of-action against bacterial Type II topoisomerases” (Scientific Reports, 2015).
# Read-outs that look alike come from different tables or passages of the source.
# Tests used:
# [1] = tested on: resistant isolates of S. aureus, S. pneumoniae and N. gonorrhoeae; type: cell-based
# DNA gyrase or Topo IV = experiment: Malachite Green based ATPase assays; type: biochemical
# [2] = tested on: S. aureus AP607004 (MRQR); experiment: MIC (CLSI broth microdilution); type: cell-based
# [3] = Phase 1 study in healthy volunteers, oral suspension; type: in vivo, human
# Protocol: A Phase 1 multipart study[65] in healthy adult volunteers (informed consent with males and females of non-childbearing potential) with ETX0914 was performed under approval of the AstraZeneca Innovative Medicines Safety Review Board and the United States Food and Drug Administration. ETX0914 was administered orally as an aqueous suspension containing 1% w/v povidone K29–32, 0.2% m/v sodium lauryl sulfate and 0.25% w/v glycerin. In Part A of this study, 48 healthy subjects (ranging in age from 19 to 55 years) under fasting conditions received single ascending doses of 200–4000 mg formulated ETX0914 or placebo (6:2, ETX0914:placebo). In Part B, a second set of 18 healthy subjects (ranging in age from 22 to 48 years) were randomized into two equal dosing cohorts receiving a single dose of either 1500 mg ([…]) or 3000 mg ([…]) of ETX0914 in the fasting state and 30 minutes after a meal. Safety monitoring for both Parts A and B included vital signs, electrocardiogram, continuous telemetry, safety laboratory testing (clinical chemistry, haematology and urinalysis) and adverse events monitoring. Blood samples (1 mL) were collected at 0.5, 1, 1.5, 2, 2.5, 3, 4, 5, 6, 8, 10, 12, 24, 36, 48 and 72 h post dose. Urine samples were collected during−12 to 0 hours pre-dose, and 0 to 4, 4 to 8, 8 to 12, 12 to 24, 24 to 48, and 48 to 72 h post-dose. PK parameters were separately determined for the cohorts in each of the Part A and Part B studies. Concentrations of ETX0914 in the plasma and urine were quantified by LC-MS/MS. Plasma PK parameters were calculated using Phoenix WinNonLin software.
# AZD0914 was analyzed in mouse, rat, dog, monkey plasma using a qualified method which was later validated for human plasma analysis. The validated human method is described below and is representative of the approach taken in other species. AZD0914 was determined in human plasma prepared with K2EDTA as an anticoagulant. AZD0914 and an internal standard (^13C2, ^15N2 AZD0914) were extracted from plasma with tert- butyl methyl ether. After evaporating to dryness under a stream of nitrogen, the residue was reconstituted and quantitated by reverse phase HPLC-MS/MS against a standard curve from 1.00 to 5000 ng/ml. Separation was achieved using a gradient which went from 55% to 85% methanol:acetonitrile (1:1) containing 0.2% formic acid as mobile phase B and 0.2% formic acid in water as mobile phase A at a flow rate of 0.60 ml/min through a Phenomonex Gemini C18 column (50 x 2.0 mm column, […]) heated using a Shimadzu CTO-20AC set to 40 °C. AZD0914 was detected in multiple reaction monitoring (MRM) mode by positive ion electrospray ionization using a Sciex API5500 (Toronto, Canada) mass spectrometer. The ion spray voltage was set to 5500 V and turboionspray temperature was 650 °C. AZD0914 was quantitated using the MRM transition 488.2 → 348.2 using a collision energy of 29 eV. The internal standard, (^13C2, ^15N2 AZD0914), was monitored using identical conditions except for the MRM transition of 492.2 → 348.2.
# Iks/Kv7.1 = Iks/Kv7.1 (Homo sapiens, UniProt P51787); experiment: In vitro ion channel function; type: cell-based; conditions: Iks/Kv7.1 IC50, Slowly activating K^+ delayed rectifier
# Text: (§1) Supplement srep11827-s1.doc, table 3 | column: Table S2: In vitro ion channel function IC50 (µM)
# Ito/Kv4.3 = biological target: T1, Ito/Kv4.3 (Homo sapiens, UniProt Q9UK17); experiment: In vitro ion channel function; type: cell-based; conditions: Ito/Kv4.3 IC50, Transient outward K^+ early repolarization
# T1 sequence (Q9UK17 1-655): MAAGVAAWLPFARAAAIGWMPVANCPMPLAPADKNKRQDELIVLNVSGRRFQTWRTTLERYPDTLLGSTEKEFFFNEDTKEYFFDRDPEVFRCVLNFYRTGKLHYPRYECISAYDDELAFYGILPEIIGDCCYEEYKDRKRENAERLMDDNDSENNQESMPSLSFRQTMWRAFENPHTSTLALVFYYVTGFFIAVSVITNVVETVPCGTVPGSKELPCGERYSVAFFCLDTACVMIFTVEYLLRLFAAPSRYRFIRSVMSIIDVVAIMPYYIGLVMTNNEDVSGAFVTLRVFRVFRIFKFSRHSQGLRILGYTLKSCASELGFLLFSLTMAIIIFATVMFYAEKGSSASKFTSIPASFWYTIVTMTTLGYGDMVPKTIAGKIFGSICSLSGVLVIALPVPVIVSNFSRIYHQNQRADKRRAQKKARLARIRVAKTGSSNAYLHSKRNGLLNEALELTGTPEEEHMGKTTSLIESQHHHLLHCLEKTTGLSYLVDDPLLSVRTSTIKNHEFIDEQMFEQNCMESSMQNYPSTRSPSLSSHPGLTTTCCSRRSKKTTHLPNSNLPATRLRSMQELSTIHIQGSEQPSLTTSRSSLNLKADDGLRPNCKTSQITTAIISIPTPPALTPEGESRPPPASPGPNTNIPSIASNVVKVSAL
# Text: as §1
# hNav1.5 = hNav1.5 (Homo sapiens, UniProt Q14524); experiment: In vitro ion channel function; type: cell-based; conditions: hNav1.5 IC50, Initiation of cardiac action potential/QRS interval
# Text: as §1
# hCav1.2 = hCav1.2 (Homo sapiens, UniProt Q13936); experiment: In vitro ion channel function; type: cell-based; conditions: hCav1.2 IC50, Ca^2+ entry into excitable cells
# Text: as §1
# Kv1.5 = Kv1.5 (Homo sapiens, UniProt P22460); experiment: In vitro ion channel function; type: cell-based; conditions: Ikr/Kv1.5 IC50, Rapidly activating K^+ delayed rectifier
# Text: as §1
# USA100 NRS382 = experiment: MIC (modal, CLSI broth microdilution); type: cell-based, S. aureus; conditions: Staphylococcus aureus, read-out: Modal MIC
# [4] = both sexes, human, plasma, oral, 3000 mg, fasting
# Sequence of hCav1.2 (P54289 25-1103): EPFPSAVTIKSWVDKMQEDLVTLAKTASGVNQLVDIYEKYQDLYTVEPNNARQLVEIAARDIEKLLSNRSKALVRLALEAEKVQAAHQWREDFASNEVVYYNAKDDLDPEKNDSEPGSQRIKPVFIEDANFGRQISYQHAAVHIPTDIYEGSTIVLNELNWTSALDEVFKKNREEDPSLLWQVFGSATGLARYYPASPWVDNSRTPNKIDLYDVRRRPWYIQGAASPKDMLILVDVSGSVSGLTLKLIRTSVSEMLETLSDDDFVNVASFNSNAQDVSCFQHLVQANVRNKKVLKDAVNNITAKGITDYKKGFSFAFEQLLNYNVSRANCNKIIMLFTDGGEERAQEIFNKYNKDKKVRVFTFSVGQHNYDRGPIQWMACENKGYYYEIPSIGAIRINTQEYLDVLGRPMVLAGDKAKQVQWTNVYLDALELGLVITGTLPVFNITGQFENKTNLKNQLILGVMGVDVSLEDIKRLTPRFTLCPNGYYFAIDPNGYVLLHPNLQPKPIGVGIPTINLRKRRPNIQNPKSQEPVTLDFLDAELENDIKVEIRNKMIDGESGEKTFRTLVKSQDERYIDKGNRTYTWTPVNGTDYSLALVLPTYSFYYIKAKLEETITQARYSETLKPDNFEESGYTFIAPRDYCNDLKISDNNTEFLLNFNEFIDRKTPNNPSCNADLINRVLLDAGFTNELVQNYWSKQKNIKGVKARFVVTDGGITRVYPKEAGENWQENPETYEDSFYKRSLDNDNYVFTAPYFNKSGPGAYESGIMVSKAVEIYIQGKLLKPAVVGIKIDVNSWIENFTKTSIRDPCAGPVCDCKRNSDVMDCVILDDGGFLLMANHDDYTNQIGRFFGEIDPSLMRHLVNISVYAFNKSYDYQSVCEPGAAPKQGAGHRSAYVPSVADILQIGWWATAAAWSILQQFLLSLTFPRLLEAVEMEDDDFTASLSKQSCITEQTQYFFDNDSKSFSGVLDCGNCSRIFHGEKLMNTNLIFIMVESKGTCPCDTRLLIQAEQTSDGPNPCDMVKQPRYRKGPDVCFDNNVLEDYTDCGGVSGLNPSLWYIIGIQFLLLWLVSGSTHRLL
# Sequence of hCav1.2 (Q13936 whole entry): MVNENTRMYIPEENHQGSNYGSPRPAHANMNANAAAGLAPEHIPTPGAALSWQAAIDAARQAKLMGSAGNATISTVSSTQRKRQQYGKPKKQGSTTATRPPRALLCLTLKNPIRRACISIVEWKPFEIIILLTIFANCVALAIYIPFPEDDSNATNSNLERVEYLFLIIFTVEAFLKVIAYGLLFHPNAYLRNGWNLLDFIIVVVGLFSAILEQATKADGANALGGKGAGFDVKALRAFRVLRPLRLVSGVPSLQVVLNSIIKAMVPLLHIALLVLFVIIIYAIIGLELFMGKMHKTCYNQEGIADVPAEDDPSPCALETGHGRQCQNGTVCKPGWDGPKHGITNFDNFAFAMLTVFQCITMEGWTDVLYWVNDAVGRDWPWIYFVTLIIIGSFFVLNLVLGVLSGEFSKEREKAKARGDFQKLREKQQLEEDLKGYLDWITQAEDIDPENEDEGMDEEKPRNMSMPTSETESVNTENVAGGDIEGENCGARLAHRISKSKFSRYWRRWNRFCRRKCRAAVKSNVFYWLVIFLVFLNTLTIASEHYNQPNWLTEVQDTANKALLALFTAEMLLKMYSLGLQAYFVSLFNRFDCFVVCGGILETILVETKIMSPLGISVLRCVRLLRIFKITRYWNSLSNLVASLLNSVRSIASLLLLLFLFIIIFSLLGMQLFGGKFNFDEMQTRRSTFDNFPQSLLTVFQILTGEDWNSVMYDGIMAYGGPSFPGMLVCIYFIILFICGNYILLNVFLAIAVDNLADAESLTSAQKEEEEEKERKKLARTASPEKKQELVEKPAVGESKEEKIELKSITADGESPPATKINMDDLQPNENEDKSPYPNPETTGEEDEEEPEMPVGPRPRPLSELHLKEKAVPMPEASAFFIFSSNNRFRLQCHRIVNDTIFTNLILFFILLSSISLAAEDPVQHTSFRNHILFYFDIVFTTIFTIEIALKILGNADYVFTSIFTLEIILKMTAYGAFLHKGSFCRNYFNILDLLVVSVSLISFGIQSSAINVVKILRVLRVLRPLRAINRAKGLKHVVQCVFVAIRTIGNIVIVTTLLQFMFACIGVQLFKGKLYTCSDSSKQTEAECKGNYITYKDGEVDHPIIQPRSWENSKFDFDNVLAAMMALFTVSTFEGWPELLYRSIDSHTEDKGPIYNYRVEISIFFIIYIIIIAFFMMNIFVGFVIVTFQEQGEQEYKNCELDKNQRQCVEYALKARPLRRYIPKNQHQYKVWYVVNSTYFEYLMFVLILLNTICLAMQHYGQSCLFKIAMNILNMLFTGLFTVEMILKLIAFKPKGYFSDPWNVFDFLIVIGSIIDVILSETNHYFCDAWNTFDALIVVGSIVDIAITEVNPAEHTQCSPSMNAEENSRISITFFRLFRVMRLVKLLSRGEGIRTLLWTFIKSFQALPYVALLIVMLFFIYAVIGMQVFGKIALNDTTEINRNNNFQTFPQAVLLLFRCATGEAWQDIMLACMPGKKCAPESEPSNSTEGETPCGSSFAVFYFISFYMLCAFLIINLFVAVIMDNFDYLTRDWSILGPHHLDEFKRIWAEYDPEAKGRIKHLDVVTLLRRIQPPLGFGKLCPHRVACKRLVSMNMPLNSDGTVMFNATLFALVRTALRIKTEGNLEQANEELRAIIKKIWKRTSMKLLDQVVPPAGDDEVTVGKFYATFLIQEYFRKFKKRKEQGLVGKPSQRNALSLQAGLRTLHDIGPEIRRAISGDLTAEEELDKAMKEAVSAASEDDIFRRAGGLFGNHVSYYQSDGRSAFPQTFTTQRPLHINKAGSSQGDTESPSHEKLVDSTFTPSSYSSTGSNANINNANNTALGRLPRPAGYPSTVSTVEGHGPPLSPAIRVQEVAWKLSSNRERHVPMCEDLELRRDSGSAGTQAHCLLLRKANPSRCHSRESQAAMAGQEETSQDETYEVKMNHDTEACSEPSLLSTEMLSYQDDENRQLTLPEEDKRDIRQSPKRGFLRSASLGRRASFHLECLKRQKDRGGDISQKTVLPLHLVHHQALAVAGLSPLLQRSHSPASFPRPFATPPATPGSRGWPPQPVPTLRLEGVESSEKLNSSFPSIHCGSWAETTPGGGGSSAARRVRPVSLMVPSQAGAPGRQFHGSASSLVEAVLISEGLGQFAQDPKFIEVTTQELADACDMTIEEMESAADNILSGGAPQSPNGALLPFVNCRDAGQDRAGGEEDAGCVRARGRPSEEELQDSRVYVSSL
# Sequence of hCav1.2 (Q08289 whole entry, further chain): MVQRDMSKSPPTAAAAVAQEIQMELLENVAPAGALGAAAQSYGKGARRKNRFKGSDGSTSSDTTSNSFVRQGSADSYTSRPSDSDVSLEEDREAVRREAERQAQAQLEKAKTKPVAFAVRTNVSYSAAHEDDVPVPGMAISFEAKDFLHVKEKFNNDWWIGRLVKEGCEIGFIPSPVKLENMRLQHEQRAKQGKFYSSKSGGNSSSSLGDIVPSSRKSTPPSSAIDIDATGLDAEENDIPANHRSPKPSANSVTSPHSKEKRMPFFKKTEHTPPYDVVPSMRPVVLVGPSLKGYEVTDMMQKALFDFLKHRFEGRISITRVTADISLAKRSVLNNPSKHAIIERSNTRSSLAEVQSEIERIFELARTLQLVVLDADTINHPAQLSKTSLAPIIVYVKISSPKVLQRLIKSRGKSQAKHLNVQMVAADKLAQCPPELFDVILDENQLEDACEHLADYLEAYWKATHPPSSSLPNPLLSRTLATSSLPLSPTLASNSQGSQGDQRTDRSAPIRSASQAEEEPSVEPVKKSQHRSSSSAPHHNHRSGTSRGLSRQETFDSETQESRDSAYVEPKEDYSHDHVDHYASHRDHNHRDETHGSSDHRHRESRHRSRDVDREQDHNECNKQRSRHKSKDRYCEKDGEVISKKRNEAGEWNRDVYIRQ
# Sequence of Iks/Kv7.1 (P51787 whole entry): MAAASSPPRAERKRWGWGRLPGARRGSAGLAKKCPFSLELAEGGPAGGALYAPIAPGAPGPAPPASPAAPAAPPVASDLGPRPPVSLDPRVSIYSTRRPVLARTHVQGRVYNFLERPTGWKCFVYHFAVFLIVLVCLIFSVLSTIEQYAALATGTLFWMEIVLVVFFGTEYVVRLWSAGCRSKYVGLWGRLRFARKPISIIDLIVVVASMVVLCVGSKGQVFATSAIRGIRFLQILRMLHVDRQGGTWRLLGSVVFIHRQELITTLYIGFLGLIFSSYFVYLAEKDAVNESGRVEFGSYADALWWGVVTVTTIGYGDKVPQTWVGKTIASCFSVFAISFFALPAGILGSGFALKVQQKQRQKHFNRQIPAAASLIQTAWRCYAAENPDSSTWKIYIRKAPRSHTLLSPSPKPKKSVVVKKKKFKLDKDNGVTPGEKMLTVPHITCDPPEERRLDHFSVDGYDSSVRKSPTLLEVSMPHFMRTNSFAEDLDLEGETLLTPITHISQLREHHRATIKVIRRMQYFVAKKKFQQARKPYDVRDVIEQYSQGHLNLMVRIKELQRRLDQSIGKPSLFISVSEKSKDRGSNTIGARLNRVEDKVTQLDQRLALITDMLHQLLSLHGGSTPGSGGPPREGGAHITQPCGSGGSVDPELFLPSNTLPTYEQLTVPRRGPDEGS
smiles,measurement,setting,value
C[C@@H]1CN2c3c(cc4c(N5C(=O)OC[C@@H]5C)noc4c3F)CC3(C(=O)NC(=O)NC3=O)[C@H]2[C@H](C)O1 [ETX0914],susceptibility of GyrB\ParE mutants with reduced novobiocin susceptibility,"[1]; S. aureus ARC3445, S. pneumoniae ARC2800",fully susceptible
same,cross-resistance of NBTI resistant S. aureus mutant ARC2796,[1]; derived from ARC516,not cross-resistant
same,inhibition of ATPase activity,DNA gyrase or Topo IV,lack of inhibition of ATPase activity
same,MIC: S. aureus AP607004 (MRQR),[2],0.5 µg/mL
same,increase in AUC with high fat meal,[3]; 3000 mg,> 40%
same,serious adverse events,"[3]; Phase 1, 200–4000 mg",No serious adverse events
same,mild and non-serious AEs,"[3]; Phase 1, reversible in all subjects",transient dysgeusia and headache
same,AUC,[3]; [4],195 µg·h/mL
same,Cmax,[3]; [4],22900 ng/mL
same,Tmax,"[3]; both sexes, human, plasma, oral, 3000 mg, fasting, read-out: Tmax",2.2 h
same,AUC,"[3]; both sexes, human, plasma, oral, 3000 mg, preceded by a high fat meal",281 µg·h/mL
same,Cmax,"[3]; both sexes, human, plasma, oral, 3000 mg, with food",24000 ng/mL
same,Tmax,"[3]; both sexes, human, plasma, oral, 3000 mg, with food, read-out: Tmax",4 h
same,half-life,"[3]; both sexes, human, plasma, oral, 8 to 72 hour post-dose period",5.2 to 6.25 h
same,Tmax,"[3]; both sexes, human, plasma, po, fasting, 200–4000 mg single oral dose, read-out: median Tmax",1.5 to 2.26 h
same,oral dose excreted as parent drug in urine,"[3]; both, human, urine, po",Less than 5%
same,margin of human AUC to NOAEL in dog,[3]; highest 4000 mg dose,4.8 fold
same,margin of human AUC to NOAEL in rat,[3]; highest 4000 mg dose,6.4 fold
same,margin of human Cmax to NOAEL in dog,[3]; highest 4000 mg dose,3.7 fold
same,margin of human Cmax to NOAEL in rat,[3]; highest 4000 mg dose,4.9 fold
same,doses at which the efficacious AUC was exceeded,[3]; human AUC0-24h versus dose,> 800 mg
same,IC50,Iks/Kv7.1,> 333 µM
same,IC50,Ito/Kv4.3,216 µM
same,IC50,hNav1.5,> 333 µM
same,IC50,hCav1.2,326 µM
same,IC50,Kv1.5,> 333 µM
same,MIC,USA100 NRS382,0.125 µg/mL
